# Patent US20040048380A1, “Chimeric vectors and their use for heterologous genes transfer” (priority 2003, published 2004)
# How the values were obtained:
# HeLa cells [1] = assay: Phage micropanning, internalization (37° C.), with or without kinase inhibitors; format: cell-based; details: Wortammannin 1 μM, ML-7 2 μM, FIG. 4
# Text: FIG. 4. Effect of the inhibitors of Wortammanin and ML-7 kinases on cell internalization. 10^12 particles of ΔPb phage (white bars) or of Pb phage (striped bars) are adsorbed on HeLa cells. The internalized phage is recovered and titrated. […] Data are shown as percentages of control enrichments carried out without inhibitors. Th results are average values of three different tests carried out in two series; SD (Standard Deviation) is also shown.
# The micropanning on HeLa and CS-1 or CS-1/β3 cells was carried out […] at 4° C. and at 37° C. in order to quantify the bond and the internalization of chimeric phages, respectively. […] The eluates were titrated by ELISA on a plate coated with an anti-M13 antibody detected with anti-pVIII-HRP antibody, using as standard a phage stock with known titer.
# Phage internalization was evaluated on cells which have been pre-incubated for 30′ at 37° C. with chlorokine 100 nM (Sigma) alone or together with an inhibitor of PI3K (phosphatidylinositol-3OH kinase), 1 μM Wortammannin (Sigma) or with an inhibitor of myosin light chain kinase ML-7 2 μM hydrochloride (Calbiochem, La Jolla, Calif.). […]
# In short, the experiment was carried out as follows: 7.5×10^4 cells/well are plated and incubated with 10^12 chimeric phage particles. The results are expressed as enrichment factors with respect to control phages. […]
# HeLa cells [2] = assay: Transduction efficiency by GFP reporter gene expression (FACS); format: cell-based; details: peptide 4.86 μM, molar excess of about 2000 times; FIG. 5b
# Experimental: FIG. 5. Chimeric phages transduce eukaryotic cells in a receptor-dependent way. Cells are incubated for 1 hour at 4° C. and for 3 hours at 37° C. with 2×10^13 particles of Pb-GFP phage or ΔPb-GFP phage. After 72 hours said cells are analyzed with FACS. For competition tests they are pre-incubated with GRGDSP or GRGESP peptides (4.86 μM, corresponding to a molar excess of about 2000 times) for 1 hour at 4° C. and then incubated with chimeric phages. Data are analyzed with WinMDI2.8 software. 10^4 cells for each well are counted. a) White bars correspond to ΔPb-GFP phages; b) striped bars correspond to Pb-GFP b) phage.
# The expression of GFP reporter gene (Green Fluorescent Protein) was carried out by FACS analysis as follows: 1×10^5 cells (HeLa, Cs-1/β3 or Cs-1) were plated in 6-portion wells. […] After the washings and 72 hours of incubation in fresh medium the expression levels of GFP protein were measured by FACS. The specificity of the measured signal was evaluated also in presence of GRGDSP or GRGESP peptides, pre-incubating the cells for 1 hour, with peptide concentration of 4.86 μM, corresponding to a molar excess of about 2000 times and maintaining said concentrations in the following incubations. 10^4 cells were measured for each sample. […]
compound,measurement,setting,value
O=S(=O)(c1cccc2c(I)cccc12)N1CCCNCC1 [ML-7],effect of kinase inhibitor on internalization of Pb and ΔPb chimeric phages,HeLa cells [1],not
COC[C@H]1OC(=O)c2coc3c2[C@@]1(C)C1=C(C3=O)[C@@H]2CCC(=O)[C@@]2(C)C[C@H]1OC(C)=O [Wortammannin],effect of kinase inhibitor on internalization of Pb and ΔPb chimeric phages,HeLa cells [1],inhibited
GRGDSP,inhibition of the transduction of HeLa cells by ΔPb-GFP phage,HeLa cells [2],up to 90%
GRGESP,inhibition of the transduction of HeLa cells by ΔPb-GFP phage,HeLa cells [2],not observed
